Assay results from patent US9594084B2, “Phosphorylation of histones and uses thereof” (H. LEE MOFFITT CANCER CENTER AND RESEARCH INSTITUTE, priority 2012, dated 2017).

Tests used:
[1] = tested on: core histone genes located in Hist1 cluster; assay: Quantitative RT-PCR of core histone transcripts in synchronized MEFs; assay type: cell-based, mouse; conditions: MK1775 0.625 μM, 14 hr, after 6.30 hours post-release (compare 8.30 hours)
WEE1 = WEE1 (Homo sapiens, UniProt P30291); assay: Peptide Immunosandwich Assay (PIA) with GBM tumor lysates; assay type: biochemical; conditions: 100 ug of lysates, 10 uM for 30 minutes
Method: Threshold interval is shown.
In brief, Streptavidin coated 96-well plates (R&D systems) were incubated with biotinylated human histone H2B derived peptides […] (SEQ ID NO: 62, Y37 site is underlined). H2B derived phospho-peptide KRSRKESp[…] (SEQ ID NO: 63) was used as positive control. Any unbound areas on the plate were blocked with 3% BSA. Next, purified WEE1 protein (100 ng) prepared in kinase buffer (20 mM HEPES, 225 mM NaCl, 1% Triton X-100, 10% glycerol, phosphatase and protease inhibitors) supplemented with 1 uM ATP and 1 uM MgCl2. After 2 hours of incubation, plates were washed with phosphate buffered saline containing 0.1% Tween 20 (PBST) and reblocked in 3% BSA. The pY37-H2B or pTyr antibodies (at 1:1000 dilution) were added and incubated for 1 hour. Unbound antibodies were washed and HRP-conjugated anti-mouse secondary antibodies (1:5000) were added. The magnitude of phosphorylation was detected using developer solution (OPD tablets, Sigma) and after 20 minutes of incubation, the plates were read at 450 nm.
To assess the WEE1 epigenetic activity in GBM patients, lysates were prepared from 8 GBM tumor biopsies and 3 normal brain samples as a control. The lysates were quantitated and 100 ug of lysates was used per reaction. Each reaction was performed in triplicates. […]

IDH2 gene transcription = assay: qRT-PCR of IDH2 in cancer cell lines; assay type: cell-based
Excerpt: (FIG. 42a-42e) RNA was isolated from cells treated with WEE1 inhibitor (or siRNA) followed by qRT-PCR using IDH2 and actin primers.
Total RNA was isolated followed by qRT-PCR with IDH2 and actin specific primers. As control, U118 cell line was used which has low levels of WEE1 (unpublished data).

Sequence of WEE1 (P30291 whole entry): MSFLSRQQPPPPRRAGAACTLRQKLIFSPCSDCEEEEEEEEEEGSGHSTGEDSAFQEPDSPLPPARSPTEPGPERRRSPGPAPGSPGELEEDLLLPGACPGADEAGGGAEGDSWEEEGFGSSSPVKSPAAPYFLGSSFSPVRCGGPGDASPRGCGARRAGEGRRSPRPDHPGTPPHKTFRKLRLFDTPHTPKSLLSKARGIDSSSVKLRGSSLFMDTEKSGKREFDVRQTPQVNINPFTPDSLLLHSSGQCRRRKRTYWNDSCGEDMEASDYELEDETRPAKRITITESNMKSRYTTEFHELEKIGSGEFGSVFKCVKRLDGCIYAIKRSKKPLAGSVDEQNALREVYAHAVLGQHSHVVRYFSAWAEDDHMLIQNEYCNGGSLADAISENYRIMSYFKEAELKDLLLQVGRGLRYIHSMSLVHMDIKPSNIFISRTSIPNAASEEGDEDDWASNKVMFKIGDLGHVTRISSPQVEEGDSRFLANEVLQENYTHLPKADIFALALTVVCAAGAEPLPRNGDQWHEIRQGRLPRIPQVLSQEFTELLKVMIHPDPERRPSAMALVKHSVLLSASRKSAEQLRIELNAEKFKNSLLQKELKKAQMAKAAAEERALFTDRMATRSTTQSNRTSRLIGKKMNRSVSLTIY

C=CCn1c(=O)c2cnc(Nc3ccc(N4CCN(C)CC4)cc3)nc2n1-c1cccc(C(C)(C)O)n1 [MK-1775]
histone mRNA levels [1]: significant increase | WEE1 activity in GBM tumor lysates (WEE1): significantly reduced | transcript levels of the IDH2 gene (IDH2 gene transcription; LNCaP (prostate), 1 uM, 24 hours): significant increase | transcript levels of the IDH2 gene (IDH2 gene transcription; U87 (GBM), 1 uM, 24 hours): significant increase | IDH2 mRNA (IDH2 gene transcription; U118 cell line (low levels of WEE1), 1 uM, 24 hours): not increased | transcript levels of the IDH2 gene (IDH2 gene transcription; WM1366 (melanoma), 1 uM, 24 hours): significant increase | IDH2 transcript levels (IDH2 gene transcription; summary statement): increased
